US7332504B2, “Heterocyclic substituted aminoazacycles useful as central nervous system agents” (Abbott Laboratories, priority 1999, dated 2008)
Where a name gives a salt, the structure may show the parent alone.

Columns and labels:
[1] = molecular target: T1, neuronal nicotinic acetylcholine receptors (Rattus norvegicus, UniProt P09483+P12390); test: Binding of [3H]-cytisine to neuronal nicotinic acetylcholine receptors, crude synaptic membranes from whole rat brain
T1 construct: crude synaptic membrane preparations from whole rat brain; from tissue; host or cells: whole rat brain, crude synaptic membranes
Description: The In Vitro protocols for determination of nicotinic acetylcholine channel receptor binding potencies of ligands were determined as follows.
Binding of [^3H]-cytisine ([^3 H]-CYT) to neuronal nicotinic acetylcholine receptors was accomplished using crude synaptic membrane preparations from whole rat brain (Pabreza et al., Molecular Pharmacol., 1990, 39:9). Washed membranes were stored at —80° C. prior to use. Frozen aliquots were slowly thawed and resuspended in 20 volumes of buffer (containing: 120 mM NaCl, 5 mM KCl, 2 mM MgCl2, 2 mM CaCl2 and 50 mM Tris-Cl, pH 7.4 @4° C.). After centrifuging at 20,000×g for 15 minutes, the pellets were resuspended in 30 volumes of buffer.
The test compounds were dissolved in water to make 10 mM stock solutions. Each solution was then diluted (1:100) with buffer (as above) and further taken through seven serial log dilutions of produce test solution from 10^−5 to 10^−11 M.
Homogenate (containing 125-150 μg protein) was added to triplicate tubes containing the range of concentrations of test compound described above and [^3H]-CYT (1.25 nM) in a final volume of 500 μL. Samples were incubated for 60 minutes at 4° C., then rapidly filtered through Whatman GF/B filters presoaked in 0.5% polyethyleneimine using 3×4 mL of ice-cold buffer. The filter are counted in 4 mL of Ecolume® (ICN). Nonspecific binding was determined in the presence of 10 μM (−)-nicotine and values were expressed as a percentage of total binding. IC50 values were determined with the RS-1 (BBN) nonlinear least squares curve-fitting program and IC50 values were converted to Ki values using the Cheng and Prusoff correction ([…].

mouse hot plate paradigm = test: Mouse hot plate paradigm (analgesia); format: in vivo; conditions: ip, 0.5 h, mice, intraperitoneal, dosed 30 minutes prior to testing, hot plate 55° C., increase in tenth jump latency relative to control, read-out: minimally effective dose (MED)
Description: An in vivo protocol was utilized to determine the effectiveness of nicotinic acetylcholine receptor ligands as analgesic agents in the mouse hot plate paradigm.
Separate groups of mice, (n=8/group) were utilized for each dose group. All drugs were administered by the intraperitoneal route of administration. Test drugs were dissolved in water to make a 6.2 mM stock solution. Animals were dosed with this solution (10 mL/kg body weight) for a 62 micromol/kg dose. Lower doses were administered similarly, following serial dilution of the stock solution in half-log increments. Animals were dosed 30 minutes prior to testing in the hot plate. The hot-plate utilized was an automated analgesia monitor (Model #AHP16AN, Omnitech Electronics, Inc. of Columbus, Ohio). The temperature of the hot plate was maintained at 55° C. and a cut-off time of 180 seconds was utilized. Latency until the tenth jump was recoreded as the dependent measure. An increase in the tenth jump latency relative to the control was considered an effect.

T1 sequence (P09483 31-630): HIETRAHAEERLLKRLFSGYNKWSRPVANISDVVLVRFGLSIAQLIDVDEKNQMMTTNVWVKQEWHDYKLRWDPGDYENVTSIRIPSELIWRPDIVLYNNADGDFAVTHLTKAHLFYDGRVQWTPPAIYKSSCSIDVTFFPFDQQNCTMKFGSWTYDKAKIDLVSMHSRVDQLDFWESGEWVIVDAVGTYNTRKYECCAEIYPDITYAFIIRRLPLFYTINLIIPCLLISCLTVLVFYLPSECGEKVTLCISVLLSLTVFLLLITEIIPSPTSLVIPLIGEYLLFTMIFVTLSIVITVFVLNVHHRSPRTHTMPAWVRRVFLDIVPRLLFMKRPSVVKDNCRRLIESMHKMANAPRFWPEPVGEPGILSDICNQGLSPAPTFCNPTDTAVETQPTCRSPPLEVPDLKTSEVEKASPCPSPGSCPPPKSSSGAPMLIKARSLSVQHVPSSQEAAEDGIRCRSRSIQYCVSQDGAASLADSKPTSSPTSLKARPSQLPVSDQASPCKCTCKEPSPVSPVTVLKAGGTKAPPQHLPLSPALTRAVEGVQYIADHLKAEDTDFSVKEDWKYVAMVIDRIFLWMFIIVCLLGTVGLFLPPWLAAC
T1 sequence (P12390 25-500): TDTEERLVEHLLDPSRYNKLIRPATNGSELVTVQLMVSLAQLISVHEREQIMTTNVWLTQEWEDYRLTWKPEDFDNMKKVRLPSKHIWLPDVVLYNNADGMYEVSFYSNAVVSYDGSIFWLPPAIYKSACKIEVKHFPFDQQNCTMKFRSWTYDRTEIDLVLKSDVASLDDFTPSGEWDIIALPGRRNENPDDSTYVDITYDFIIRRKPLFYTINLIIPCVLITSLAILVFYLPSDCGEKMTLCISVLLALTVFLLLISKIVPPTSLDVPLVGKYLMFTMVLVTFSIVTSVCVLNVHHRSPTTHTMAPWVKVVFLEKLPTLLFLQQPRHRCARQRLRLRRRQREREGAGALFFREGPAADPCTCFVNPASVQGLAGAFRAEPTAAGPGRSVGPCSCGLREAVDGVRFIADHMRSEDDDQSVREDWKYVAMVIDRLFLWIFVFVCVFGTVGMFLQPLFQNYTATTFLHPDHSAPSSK

| SMILES | melting point [°C] | Ki [1] [pM] | minimal effective dose (mouse hot plate paradigm) [µmol/kg] |
| --- | --- | --- | --- |
| CN(C)[C@H]1CCN(c2ccc(Cl)nc2)C1 (as salt: benzenesulfonate) [Example 3, N-[(3S)-1-(6-chloro-3-pyridinyl)pyrrolidinyl]-N,N-dimethylamine 4-methylbenzenesulfonate] | 190 to 191.5 | – | – |
| N[C@@H]1CCN(c2ccc(Cl)nc2)C1 (as salt: benzenesulfonate) [Example 4, (3R)-1-(6-chloro-3-pyridinyl)pyrrolidinylamine 4-methylbenzenesulfonate] | 224.5 to 225.5 | – | – |
| N[C@H]1CCCN(c2cccnc2)C1 (as salt: benzenesulfonate) [Example 41, (3S)-1-(3-pyridinyl)piperidinylamine bis(4-methylbenzenesulfonate)] | 64 to 66 | – | – |
| N[C@H]1CCCN(c2ccc(Cl)nc2)C1 (as salt: benzenesulfonate) [Example 45, (3S)-1-(6-chloro-3-pyridinyl)piperidinylamine bis(4-methylbenzenesulfonate)] | 182 to 184 | – | – |
| N[C@H]1CCN(c2cncc([N+](=O)[O-])c2)C1 (as salt: fumarate) [Example 29, (3S)-1-(5-nitro-3-pyridinyl)pyrrolidinylamine fumarate] | 213 to 214 | – | – |
| CN[C@H]1CCN(c2cncc([N+](=O)[O-])c2)C1 (as salt: fumarate) [Example 30, N-methyl-N-[(3S)-1-(5-nitro-3-pyridinyl)pyrrolidinyl]amine fumarate] | 183 to 185 | – | – |
| N[C@@H]1CCN(c2cncc([N+](=O)[O-])c2)C1 (as salt: fumarate) [Example 31, (3R)-1-(5-nitro-3-pyridinyl)pyrrolidinylamine fumarate] | 212 to 213 | – | – |
| CN[C@H]1CCN(c2ccc(Cl)nc2)C1 [Example 1, N-[(3S)-1-(6-chloro-3-pyridinyl)pyrrolidinyl]-N-methylamine hydrochloride] | – | 44000 | 62 |
| N[C@H]1CCN(c2ccc(Cl)nc2)C1 [Example 2, (3S)-1-(6-chloro-3-pyridinyl)pyrrolidinylamine dihydrochloride] | – | 100 | 6.2 |
| CN(C)[C@H]1CCN(c2ccc(Cl)nc2)C1 [Example 3, N-[(3S)-1-(6-chloro-3-pyridinyl)pyrrolidinyl]-N,N-dimethylamine 4-methylbenzenesulfonate] | – | 61000 | 62 |
| N[C@@H]1CCN(c2ccc(Cl)nc2)C1 [Example 4, (3R)-1-(6-chloro-3-pyridinyl)pyrrolidinylamine 4-methylbenzenesulfonate] | – | 220 | 1.9 |
| CN[C@@H]1CCN(c2ccc(Cl)nc2)C1 [Example 5, N-[(3R)-1-(6-chloro-3-pyridinyl)pyrrolidinyl]-N-methylamine hydrochloride] | – | 5500 | 62 |
| NC1CCN(c2ccc(Cl)nc2)C1 (stereo not drawn) [Example 7, 1-(6-chloro-3-pyridinyl)-3-pyrrolidinylamine 4-methylbenzenesulfonate] | – | 120 | 6.2 |
| N[C@H]1CCN(c2cccnc2)C1 [Example 8, (3S)-1-(3-pyridinyl)pyrrolidinylamine 4-methylbenzenesulfonate] | – | 230 | 19 |
| CN[C@H]1CCN(c2cccnc2)C1 [Example 9, N-methyl-N-[(3S)-1-(3-pyridinyl)pyrrolidinyl]amine dihydrochloride] | – | 2000 | 62 |
| Cc1cc(N2CC[C@@H](N)C2)cnc1Cl [Example 15, (3R)-1-(6-chloro-5-methyl-3-pyridinyl)pyrrolidinylamine hydrochloride] | – | 30 | 6.2 |
| CN[C@@H]1CCN(c2cnc(Cl)c(C)c2)C1 [Example 16, N-[(3R)-1-(6-chloro-5-methyl-3-pyridinyl)pyrrolidinyl]-N-methylamine dihydrochloride] | – | 5100 | 1.9 |
| Cc1cc(N2CC[C@H](N)C2)cnc1Cl [Example 17, (3S)-1-(6-chloro-5-methyl-3-pyridinyl)pyrrolidinylamine dihydrochloride] | – | 30 | 6.2 |

| SMILES | melting point [°C] | Ki [1] [pM] | minimal effective dose (mouse hot plate paradigm) [µmol/kg] |
| --- | --- | --- | --- |
| CN[C@H]1CCN(c2cnc(Cl)c(C)c2)C1 [Example 18, N-[(3S)-1-(6-chloro-5-methyl-3-pyridinyl)pyrrolidinyl]-N-methylamine dihydrochloride] | – | 580 | 6.2 |
| N[C@H]1CCN(c2cnc(Cl)c(Cl)c2)C1 [Example 19, (3S)-1-(5,6-dichloro-3-pyridinyl)pyrrolidinylamine dihydrochloride] | – | 50 | 6.2 |
| CN[C@H]1CCN(c2cnc(Cl)c(Cl)c2)C1 [Example 20, N-[(3S)-1-(5,6-dichloro-3-pyridinyl)pyrrolidinyl]-N-methylamine hydrochloride] | – | 590 | 19 |
| N[C@@H]1CCN(c2cnc(Cl)c(Cl)c2)C1 [Example 21, (3R)-1-(5,6-dichloro-3-pyridinyl)pyrrolidinylamine dihydrochloride] | – | 130 | 6.2 |
| CN[C@@H]1CCN(c2cnc(Cl)c(Cl)c2)C1 [Example 22, N-[(3R)-1-(5,6-dichloro-3-pyridinyl)pyrrolidinyl]-N-methylamine hydrochloride] | – | 13000 | 19 |
| COc1cc(N2CC[C@H](N)C2)cnc1Cl [Example 23, (3S)-1-(6-chloro-5-methoxy-3-pyridinyl)pyrrolidinylamine dihydrochloride] | – | 130 | 62 |
| CN[C@H]1CCN(c2cnc(Cl)c(OC)c2)C1 [Example 24, N-[(3S)-1-(6-chloro-5-methoxy-3-pyridinyl)pyrrolidinyl]-N-methylamine dihydrochloride] | – | 4100 | 62 |
| Cc1cc(N2CC[C@H](N)C2)cnc1F [Example 25, (3S)-1-(6-fluoro-5-methyl-3-pyridinyl)pyrrolidinylamine hydrochloride] | – | 340 | 6.2 |
| N[C@H]1CCN(c2cncc([N+](=O)[O-])c2)C1 [Example 29, (3S)-1-(5-nitro-3-pyridinyl)pyrrolidinylamine fumarate] | – | 700 | 19 |
| N[C@@H]1CCN(c2cncc([N+](=O)[O-])c2)C1 [Example 31, (3R)-1-(5-nitro-3-pyridinyl)pyrrolidinylamine fumarate] | – | 3500 | 6.2 |
| NC1CCCN(c2ccc(Cl)nc2)C1 (stereo not drawn) [Example 38, 1-(6-chloro-3-pyridinyl)-3-piperidinylamine 4-methylbenzenesulfonate] | – | 510 | 6.2 |
| N[C@H]1CCCN(c2cccnc2)C1 [Example 41, (3S)-1-(3-pyridinyl)piperidinylamine bis(4-methylbenzenesulfonate)] | – | 890 | 19 |
| CN[C@H]1CCCN(c2cccnc2)C1 [Example 42, N-methyl-N-[(3S)-1-(3-pyridinyl)piperidin-3-yl]amine bis(4-methylbenzenesulfonate)] | – | 83000 | 62 |
| N[C@@H]1CCCN(c2cccnc2)C1 [Example 43, (3R)-1-(3-pyridinyl)piperidinylamine bis(4-methylbenzenesulfonate)] | – | 1100 | 0.62 |
| N[C@H]1CCCN(c2ccc(Cl)nc2)C1 [Example 45, (3S)-1-(6-chloro-3-pyridinyl)piperidinylamine bis(4-methylbenzenesulfonate)] | – | 350 | 0.62 |
| CN[C@H]1CCCN(c2ccc(Cl)nc2)C1 [Example 46, N-[(3S)-1-(6-chloro-3-pyridinyl)piperidin-3-yl]-N-methylamine dihydrochloride] | – | 60000 | 62 |
| N[C@@H]1CCCN(c2ccc(Cl)nc2)C1 [Example 47, (3R)-1-(6-chloro-3-pyridinyl)piperidin-3-ylamine bis(4-methylbenzenesulfonate)] | – | 380 | 1.9 |
